Paper PMC9929232, “On-demand male contraception via acute inhibition of soluble adenylyl cyclase” (Nature Communications, 2023)
Several values for one entry are separate records, joined by “and”; a condition that tells them apart may be missing. Equal values may be shown once. Entries after “also recorded” stand apart in the source; their conditions may differ.

How the values were obtained:
[1] = target: T1, immobilized human sAC protein (Homo sapiens, UniProt Q96PN6); experiment: Surface plasmon resonance binding kinetics;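 further: Reference-channel response subtracted from active-channel response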; settings: Fig. 1f
T1 construct: recombinant purified His-tagged sACt protein (50 μg/ml)
T1 sequence (Q96PN6 1-469 limits assumed): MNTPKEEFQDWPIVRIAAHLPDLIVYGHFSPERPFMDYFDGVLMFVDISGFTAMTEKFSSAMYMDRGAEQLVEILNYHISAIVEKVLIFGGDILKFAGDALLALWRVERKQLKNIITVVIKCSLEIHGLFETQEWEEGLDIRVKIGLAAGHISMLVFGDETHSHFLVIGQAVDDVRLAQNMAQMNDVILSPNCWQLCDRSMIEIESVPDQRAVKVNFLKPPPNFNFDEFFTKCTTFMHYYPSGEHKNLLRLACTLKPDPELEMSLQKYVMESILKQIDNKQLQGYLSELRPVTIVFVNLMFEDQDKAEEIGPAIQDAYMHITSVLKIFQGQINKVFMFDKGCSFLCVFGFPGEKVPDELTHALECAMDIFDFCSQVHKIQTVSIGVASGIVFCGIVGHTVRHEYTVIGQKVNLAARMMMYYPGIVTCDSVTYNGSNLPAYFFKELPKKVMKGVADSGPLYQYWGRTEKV
Procedure: Association and dissociation rate constants of sAC inhibitors were obtained with a Biacore 8K instrument (Cytiva) using a parallel kinetics protocol. Series S Sensor NTA chips (Cytiva) were prepared by applying recombinant purified His-tagged sACt protein (50 μg/ml) in PBS-P+ buffer (1 mM KH2PO4, 150 mM NaCl, 6 mM Na2HPO4, 0.05% (w/v) P20 Surfactant). The His-tagged sAC protein was captured via Ni^2+-His-tag chelation and covalently immobilized by amine coupling with a 1:1 mixture of 1-ethyl-3-(3-dimethylaminopropyl) carbodiimide and N-hydroxysuccinimide (active channels). After coupling, remaining reactive groups on the chip’s surface were blocked with 1 M ethanolamine followed by 350 mM EDTA to wash away any free Ni^2+. Following preparation, TBS-P+ running buffer (50 mM Tris, 150 mM NaCl, and 0.05% P20 Surfactant) supplemented with 1% DMSO was flowed over the surface of the chip until a stable baseline was obtained. For each sAC inhibitor, which were dissolved in DMSO and diluted in running buffer, increasing concentrations were injected into parallel channels for 120 s at a flow rate of 50 µl/min followed by running buffer for 600 s to allow for dissociation. All experiments included reference channels; i.e., inhibitor run over parallel channels without immobilized protein. […] Curves were fitted, and kon, KD, and koff values were determined using the Biacore 8K Insight Evaluation Software Version 2.0 (Cytiva) and a 1:1 binding kinetics model.

[2] = system: mouse sperm; experiment: Flagellar beat frequency of tethered mouse sperm; format: cell-based
Procedure: (§1) An inverted dark-field video microscope (IX73; Olympus) with a 10 x objective (mouse sperm) or a 20 x objective (human sperm) (UPLSAPO, NA 0.8; Olympus) was combined with a high-speed camera (ORCA Fusion; Hamamatsu). Dark-field videos were recorded with a frame rate of 200 Hz. The temperature of the heated stage was set to 37 °C (stage top incubator WSKMX; TOKAI HIT). The images were preprocessed with the ImageJ plugin SpermQ Preparator (Gaussian blur with sigma 0.5 px; subtract background method with radius 5 px) and analyzed using the ImageJ plugin SpermQ[57]. The beat frequency was determined from the highest peak in the frequency spectrum of the curvature time course, obtained by Fast Fourier Transform.

[3] = system: human sperm; experiment: Flagellar beat frequency of tethered human sperm; format: cell-based
Procedure: as §1

[4] = system: fertility of male mice; experiment: Timed mouse mating (contraceptive efficacy); format: in vivo; settings: for Contraceptive efficacy: vs vehicle
Procedure: Single-housed naive (i.e., uninjected and virgin) male and female C57Bl/6 mice were acclimatized to a reverse light cycle (dark: 11 AM to 11 PM) for at least 2 weeks. […] Pregnancy and litter size was assessed in two ways. Either female were sacrificed 7 days following mating and implanted embryos counted, or females were permitted to go to term (21 days) and pups counted. A subset of the pups (both male and female) born from breakthrough pregnancies were permitted to mature and their fertility was assessed in standard matings.

[5] = system: mouse sperm; experiment: cAMP generation in mouse sperm in vitro, incl. wash-out by dilution; settings: 12 minutes
Procedure: For capacitation, sperm were incubated for 90 min in TYH containing 3 mg/ml BSA and 25 mM NaHCO3 in a 37 °C incubator. To control for the consequences of dilution during isolation of epididymal mouse sperm for ex vivo assays, we assessed the ability of bicarbonate to induce a prototypical pattern of tyrosine phosphorylation (pY) which is a widely used molecular hallmark of capacitation[53]. Bicarbonate-induced pY is known to be sAC dependent in vitro[20],[22],[35]. For experiments studying sperm from injected mice, ‘swim out’ was performed in 200 μl TYH, which corresponded to a 1:10 dilution from epididymis (20 μg cauda in 200 μl buffer). Capacitation-induced changes were assessed by adding 50 µl of ‘swim out’ sperm to increasing volumes of capacitating TYH buffer.
cAMP generation was measured in mouse and human sperm. […] For human sperm, aliquots of 2 × 10^6 cells were incubated for 30 min in the presence or absence of sAC inhibitor in non-capacitating or capacitating HTF buffer. In both cases, 0.1% DMSO was used as vehicle control.
After 5 min, 150 µl of sperm/inhibitor mix was diluted into 1.35 ml non-capacitating or capacitating media with no inhibitor. […] Sperm lysates were centrifuged at 2000 × g for 3 min and the cAMP in the supernatant was acetylated and quantified using the Direct cAMP ELISA kit (Enzo).

[6] = system: human sperm; experiment: cAMP generation in human sperm in vitro, incl. wash-out by dilution; format: cell-based; settings: 30 minutes
Procedure: Samples of human semen were obtained from healthy volunteers with their prior written consent following a protocol approved by Weill Cornell Medicine’s Institutional Review Board (IRB 21-03023495). […] Semen was incubated for 30 min in a 37 °C incubator to liquefy. […] The tubes were incubated at a tilted angle of 45° at 37 °C for 60 min. Motile sperm were allowed to swim up into the HTF layer; immotile sperm and other cells or tissue debris remain in the ejaculate fraction. Up to 3 ml of the HTF layer was transferred to a fresh tube and washed twice in HTF by centrifugation (700 × g, 20 min). The supernatant was removed after the last centrifugation step and the sperm pellet was resuspended in 1 ml HTF. The purity and vitality of each sample was assessed via light microscopy. Sperm cell numbers were determined using a hemocytometer and adjusted to a concentration of 1 × 10^7 cells/ml.

[7] = 50 mg/kg i.p., mating period 0.5–2.5 hours, 2 hours
[8] = 50 mg/kg i.p., mating period 1–9 hours, 8 hours
[9] = sheet Fig. 2a replicates, 5 μM TDI-10229 or 10 nM TDI-11861 present
[10] = sheet Fig. 2b replicates, 5 min preincubation in 5 μM TDI-10229 or 10 nM TDI-11861, diluted 1:100 into inhibitor-free media
[11] = sheet Fig. 2c replicates, 5 μM TDI-10229 or 10 nM TDI-11861 present
[12] = sheet Fig. 2d replicates, 5 min preincubation in 5 μM TDI-10229 or 10 nM TDI-11861, diluted 1:100 into inhibitor-free media

## Nc1nc(Cl)cc(-c2nn(C(F)F)cc2Cc2ccccc2OCCN2CCOC[C@@H]2CO)n1 [TDI-11861]
[1]; 4 nM, Time 1.8 s
  SPR sensorgram response: 0.8425
[1]; 4 nM, Time 1.9 s
  SPR sensorgram response: 0.8424
[1]; 4 nM, Time 2 s
  SPR sensorgram response: 0.8404
[1]; 12.3 nM, Time 1.8 s
  SPR sensorgram response: 0.7083
[1]; 12.3 nM, Time 1.9 s
  SPR sensorgram response: 0.7083
[1]; 12.3 nM, Time 2 s
  SPR sensorgram response: 0.7083
[1]; 37 nM, Time 1.8 s
  SPR sensorgram response: 0.4389
[1]; 37 nM, Time 1.9 s
  SPR sensorgram response: 0.4389
[1]; 37 nM, Time 2 s
  SPR sensorgram response: 0.4389
[1]; 111 nM, Time 1.8 s
  SPR sensorgram response: 1.6715
[1]; 111 nM, Time 1.9 s
  SPR sensorgram response: 1.6715
[1]; 111 nM, Time 2 s
  SPR sensorgram response: 1.5453
[1]; 333 nM, Time 1.8 s
  SPR sensorgram response: 3.2073
[1]; 333 nM, Time 1.9 s
  SPR sensorgram response: 3.4899
[1]; 333 nM, Time 2 s
  SPR sensorgram response: 3.8103
[2]; distal 10 μm of flagellum, 5 μM TDI-10229 or 10 nM TDI-11861, mean ± SEM
  Beat frequency, Basal: 14.8 ± 1.0 Hz
[2]; distal 10 μm, 25 mM NaHCO3, 5 μM TDI-10229 or 10 nM TDI-11861, mean ± SEM
  Beat frequency, + HCO3-: 22.7 ± 1.6 Hz
[3]; distal 5 µm of flagellum, 5 μM TDI-10229 or 10 nM TDI-11861, mean ± SEM
  Beat frequency, Basal: 11.4 ± 1.3 Hz
[3]; distal 5 µm, 25 mM NaHCO3, 5 μM TDI-10229 or 10 nM TDI-11861, mean ± SEM
  Beat frequency, + HCO3-: 11.0 ± 0.8 Hz
[4]; 50 mg/kg i.p.
  mating behavior and mating frequency versus vehicle-injected males: same frequency as vehicle-injected males; also recorded: indistinguishable
[4]; 50 mg/kg i.p., mating period 0.5–2.5 hours post injection, mating time 2 hours
  Pregnancy rate: 0%
[4]; [7]
  Pregnancy pairings (pregnancies/pairings): zero females became pregnant in 52 pairings; also recorded: (0/52)
  Contraceptive efficacy: 100%
[4]; 50 mg/kg i.p., mating period 0.5–[…], 3 hours
  Contraceptive efficacy: 91%
[4]; 50 mg/kg i.p., mating period 0.5–[…], mating time 3 hours
  Pregnancy rate: 2.2%
[4]; [8]
  Pregnancy pairings (pregnancies/pairings): 5 pregnancies out of 55 and (5/55)
  Contraceptive efficacy: 78%
[4]; 50 mg/kg i.p., mating period 1–9 hours, mating time 8 hours
  Pregnancy rate: 9.1%
[4]; 50 mg/kg i.p., mating period 24–120 hours, 96 hours
  Pregnancy pairings (pregnancies/pairings): (13/15)
[4]; 50 mg/kg i.p., mating period 24–120 hours, mating time 96 hours (recovery)
  Pregnancy rate: 87%
[4]; male and female F1
  health of F1 progeny from breakthrough pregnancies: matured normally into fertile adults
[5]; [9]
  cAMP, capacitation media: 0.4536 pmol/10^6 sperm and 0.2982 pmol/10^6 sperm and 0.3279 pmol/10^6 sperm and 0.1875 pmol/10^6 sperm and 0.4476 pmol/10^6 sperm and 0.4575 pmol/10^6 sperm and 0.7152 pmol/10^6 sperm and 0.6672 pmol/10^6 sperm and 0.4645 pmol/10^6 sperm and 0.4351 pmol/10^6 sperm and 0.0606 pmol/10^6 sperm and 0.2667 pmol/10^6 sperm
  cAMP, non-capacitation media: 1 pmol/10^6 sperm and 0.8029 pmol/10^6 sperm and 0.2251 pmol/10^6 sperm and 0.2037 pmol/10^6 sperm and 0.6722 pmol/10^6 sperm and 0.7415 pmol/10^6 sperm and 0.6566 pmol/10^6 sperm and 0.7427 pmol/10^6 sperm and 0.4253 pmol/10^6 sperm and 0.8706 pmol/10^6 sperm and 0.1092 pmol/10^6 sperm and 0.7462 pmol/10^6 sperm
[5]; [10]
  cAMP, capacitation media: 0.677 pmol/10^6 sperm and 1.0488 pmol/10^6 sperm and 0.28 pmol/10^6 sperm and 0.63 pmol/10^6 sperm and 0.972 pmol/10^6 sperm and 0.1159 pmol/10^6 sperm and 0.3305 pmol/10^6 sperm and 0.9745 pmol/10^6 sperm and 1.058 pmol/10^6 sperm
  cAMP, non-capacitation media: 0.555 pmol/10^6 sperm and 1.0234 pmol/10^6 sperm (2×) and 0.88 pmol/10^6 sperm and 0.438 pmol/10^6 sperm and 0.1502 pmol/10^6 sperm and 1.06 pmol/10^6 sperm and 0.8915 pmol/10^6 sperm and 1.0835 pmol/10^6 sperm
[6]; [11]
  cAMP, capacitation media: 0.4536 pmol/10^6 sperm and 0.2982 pmol/10^6 sperm and 0.3279 pmol/10^6 sperm and 0.1875 pmol/10^6 sperm and 0.4476 pmol/10^6 sperm and 0.4575 pmol/10^6 sperm and 0.7152 pmol/10^6 sperm and 0.6672 pmol/10^6 sperm and 0.4645 pmol/10^6 sperm and 0.4351 pmol/10^6 sperm and 0.0606 pmol/10^6 sperm and 0.2667 pmol/10^6 sperm
  cAMP, non-capacitation media: 0.6403 pmol/10^6 sperm and 0.8029 pmol/10^6 sperm and 0.2251 pmol/10^6 sperm and 0.2037 pmol/10^6 sperm and 0.6722 pmol/10^6 sperm and 0.7415 pmol/10^6 sperm and 0.6566 pmol/10^6 sperm and 0.7427 pmol/10^6 sperm and 0.4253 pmol/10^6 sperm and 0.8706 pmol/10^6 sperm and 0.1092 pmol/10^6 sperm and 0.7462 pmol/10^6 sperm
[6]; [12]
  cAMP, capacitation media: 0.7435 pmol/10^6 sperm and 0.3279 pmol/10^6 sperm and 0.4575 pmol/10^6 sperm and 0.7152 pmol/10^6 sperm and 0.6672 pmol/10^6 sperm and 0.4645 pmol/10^6 sperm and 0.4351 pmol/10^6 sperm and 0.0606 pmol/10^6 sperm and 0.2667 pmol/10^6 sperm and 0.2982 pmol/10^6 sperm
  cAMP, non-capacitation media: 0.059 pmol/10^6 sperm and 0.2015 pmol/10^6 sperm and 0.452 pmol/10^6 sperm and 0.1712 pmol/10^6 sperm and 1.016 pmol/10^6 sperm and 0.658 pmol/10^6 sperm and 0.9025 pmol/10^6 sperm and 0.216 pmol/10^6 sperm and 0.84 pmol/10^6 sperm and 0.1317 pmol/10^6 sperm
